Source: patent US20150086530A1, “DOSING REGIMENS FOR THE TREATMENT OF POMPE DISEASE” (Amicus Therapeutics, Inc., priority 2012, published 2015)
Like-named read-outs stand apart in the source and are kept apart here.

How the values were obtained:
[1] = Plasma AT2220 (1-deoxynojirimycin hydrochloride) pharmacokinetics by LC-MS/MS in Pompe patients; format: in vivo, human; details: for Tmax / half-life / AUC(0-t) / AUC(0-inf) / Cmax: human, plasma
Experimental: Blood samples for pharmacokinetic analysis will be collected before dosing 1-deoxynojirimycin hydrochloride and at 1 hour after administration of 1-deoxynojirimycin hydrochloride (i.e., immediately before initiation of the alglucosidase alfa infusion) and over the 24-hour period after initiation of the alglucosidase alfa infusion. Plasma and WBC GAA enzyme activity, plasma 1-deoxynojirimycin hydrochloride concentrations and plasma anti-rhGAA antibody titer will be determined from the collected blood samples at the times summarized in Table 2. A 12-lead ECG will be performed at the end of the alglucosidase alfa infusion, immediately after collection of the post-infusion blood sample.
Concentrations of 1-deoxynojirimycin hydrochloride in blood samples will be measured in plasma using a validated LC-MS/MS assay. GAA activity in plasma will be determined by a validated assay measuring enzyme activity using 4-MUG, with and without Con A. GAA protein levels will be measured by Western blotting using anti-human GAA antibody.
Non-compartmental pharmacokinetic parameters of AUC0-t, AUCinfinity, Cmax, tmax, kel and half-life will be calculated from plasma 1-deoxynojirimycin hydrochloride concentrations and plasma rhGAA enzyme levels. Pharmacokinetic parameters will be summarized by treatment using descriptive statistics. The AUC0-t, AUCinfinity ratios for GAA enzyme activity alone or after administration with 1-deoxynojirimycin hydrochloride will be calculated. Pharmacokinetic and pharmacodynamic data for those subjects receiving Myozyme® and Lumizyme® will be analyzed separately.

glycogen (GAA substrate) = assay: Tissue glycogen levels in GAA knock-out mice after repeat rhGAA with chaperone; format: in vivo, mouse; details: 21 days after last injection
Experimental: Twelve week old GAA KO mice were administered recombinant human GAA (Myozyme) 20 mg/kg i.v. every other week for 8 weeks. […]
Repeat rhGAA administration studies were conducted in GAA knock-out mice to assess effects on tissue glycogen levels.
Twelve week old GAA KO mice were administered 20 mg/kg i.v. recombinant human GAA (Myozyme) every other week for 8 weeks. […] Tissues were collected 21 days after the last dose of rhGAA and the level of glycogen (GAA substrate) was measured.

GAA = GAA (Homo sapiens, UniProt P10253); assay: Physical stability of rhGAA in neutral pH buffer (thermal denaturation, enzymatic activity); format: biochemical; design: purchased Genzyme Corporation; details: thermal denaturation and enzymatic activity
[2] = Plasma and tissue distribution of 1-DNJ and N-butyl-DNJ in wild type C57BL/6 mice; details: mouse, in vivo, oral 100 mg/kg
Experimental: Eight-week old wild type C57BL/6 mice where administered an oral dose of 100 mg/kg of 1-DNJ or N-butyl-DNJ. […] The concentration of drug in plasma is expressed as ng/ml. The concentration of drug in tissue samples is expressed as ng/g.

[3] = Cmax following 30 mg/kg oral AT2220 or AT2221 in mice; format: in vivo; details: mouse, plasma
[4] = test system: T cells derived from blood from 50 healthy donors; assay: Ex vivo T cell immunogenicity (EpiScreen assay); format: cell-based, human; details: T cells from 50 healthy donors, addition of AT2220
Source text: By stabilizing the folded and active form of the rhGAA enzyme, AT2220 may mitigate ERT-induced immunogenicity since unfolded and aggregated proteins are generally more antigenic than properly folded proteins. […] The studies utilized Antitope Ltd.'s EpiScreen™ assay and are being repeated in samples from the Pompe patients in the study described by Examples 1-3.

[5] = co-administration with rhGAA 20 mg/kg IV every other week for 8 weeks

Tmax ([1]; oral, 250 mg, Cohort 3, 250 mg AT2220, Geometric Mean, N=6, read-out: Plasma AT2220 Tmax): 2.3 h
half-life ([1]; oral, 250 mg, Cohort 3, 250 mg AT2220, Geometric Mean, N=6, read-out: Plasma AT2220 T½ (converted)): 3.7 h
AUC(0-t) ([1]; oral, 250 mg, Cohort 3, 250 mg AT2220, Mean, N=6, read-out: Plasma AT2220 AUC0-T): 22100 ng·h/mL
AUC(0-inf) ([1]; oral, 250 mg, Cohort 3, 250 mg AT2220, Mean, N=6, read-out: Plasma AT2220 AUC0-∞): 22400 ng·h/mL
Cmax ([1]; oral, 250 mg, Cohort 3, 250 mg AT2220, Mean, N=6, read-out: Plasma AT2220 Cmax): 3300 ng/mL
Tmax ([1]; oral, 250 mg, Cohort 3, 250 mg AT2220, Mean, N=6, read-out: Plasma AT2220 Tmax): 2.3 h
half-life ([1]; oral, 250 mg, Cohort 3, 250 mg AT2220, Mean, N=6, read-out: Plasma AT2220 T½ (converted)): 3.7 h
AUC(0-t) ([1]; oral, 250 mg, Cohort 3, 250 mg AT2220, Median, N=6, read-out: Plasma AT2220 AUC0-T): 20800 ng·h/mL
AUC(0-inf) ([1]; oral, 250 mg, Cohort 3, 250 mg AT2220, Median, N=6, read-out: Plasma AT2220 AUC0-∞): 20900 ng·h/mL
Cmax ([1]; oral, 250 mg, Cohort 3, 250 mg AT2220, Median, N=6, read-out: Plasma AT2220 Cmax): 3180 ng/mL
Tmax ([1]; oral, 250 mg, Cohort 3, 250 mg AT2220, Median, N=6, read-out: Plasma AT2220 Tmax): 2 h
half-life ([1]; oral, 250 mg, Cohort 3, 250 mg AT2220, Median, N=6, read-out: Plasma AT2220 T½ (converted)): 3.6 h
AUC(0-t) ([1]; oral, 250 mg, Cohort 3, 250 mg AT2220, individual subjects, read-out: Plasma AT2220 AUC0-T): 18700 ng·h/mL
AUC(0-inf) ([1]; oral, 250 mg, Cohort 3, 250 mg AT2220, individual subjects, read-out: Plasma AT2220 AUC0-∞): 19300 ng·h/mL
Tmax ([1]; oral, 250 mg, Cohort 3, 250 mg AT2220, individual subjects, read-out: Plasma AT2220 Tmax): 3 h
half-life ([1]; oral, 250 mg, Cohort 3, 250 mg AT2220, individual subjects, read-out: Plasma AT2220 T½ (converted)): 4.6 h
half-life ([1]; po, 50 mg, 50 mg single oral dose (N=4), arithmetic mean (SD), read-out: t½, plasma AT2220 (converted)): 3.1 h
AUC(0-t) ([1]; po, 50 mg, 50 mg single oral dose (N=4), geometric mean (CV %), read-out: AUC0-T, plasma AT2220): 6970 ng·h/mL
AUC(0-inf) ([1]; po, 50 mg, 50 mg single oral dose (N=4), geometric mean (CV %), read-out: AUC0-∞, plasma AT2220): 7010 ng·h/mL
Tmax ([1]; po, 50 mg, 50 mg single oral dose (N=4), median (range), read-out: Tmax, plasma AT2220): 2 h
Cmax ([1]; po, 50 mg, 50 mg single oral dose (N=4, Cohort 1), geometric mean (CV %), read-out: Cmax, plasma AT2220): 1040 ng/mL
half-life ([1]; po, 100 mg, 100 mg single oral dose (N=6), arithmetic mean (SD), read-out: t½, plasma AT2220 (converted)): 3.4 h
AUC(0-t) ([1]; po, 100 mg, 100 mg single oral dose (N=6), geometric mean (CV %), read-out: AUC0-T, plasma AT2220): 13000 ng·h/mL
AUC(0-inf) ([1]; po, 100 mg, 100 mg single oral dose (N=6), geometric mean (CV %), read-out: AUC0-∞, plasma AT2220): 13100 ng·h/mL
Tmax ([1]; po, 100 mg, 100 mg single oral dose (N=6), median (range), read-out: Tmax, plasma AT2220): 3 h
Cmax ([1]; po, 100 mg, 100 mg single oral dose (N=6, Cohort 2), geometric mean (CV %), read-out: Cmax, plasma AT2220): 1860 ng/mL
increase in mean AUC, plasma AT2220 ([1]; to 250 mg): 3.2 fold
increase in mean Cmax, plasma AT2220 ([1]; to 250 mg): 3.0 fold
Cmax [2]: 120 µM
Cmax [3]: ~40 µM
SMILES: OC[C@H]1NC[C@H](O)[C@@H](O)[C@@H]1O [AT2220, (2R,3R,4R,5S)-2-hydroxymethyl-piperidine-3,4,5-triol]
tissue glycogen levels (glycogen (GAA substrate); 10 or 30 mg/kg PO 30 min before rhGAA 20 mg/kg IV every other week for 8 weeks): dose-dependent reduction
glycogen reduction vs rhGAA alone, biceps (glycogen (GAA substrate); [5]): ~1.4 fold
glycogen reduction vs rhGAA alone, diaphragm (glycogen (GAA substrate); [5]): ~1.6 fold
glycogen reduction vs rhGAA alone, gastrocnemius (glycogen (GAA substrate); [5]): ~2.7 fold
glycogen reduction vs rhGAA alone, heart (glycogen (GAA substrate); [5]): approximately 2.3 fold
glycogen reduction vs rhGAA alone, quadriceps (glycogen (GAA substrate); [5]): ~2.6 fold
glycogen reduction vs rhGAA alone, soleus (glycogen (GAA substrate); [5]): ~1.2 fold
glycogen reduction vs rhGAA alone, tongue (glycogen (GAA substrate); [5]): ~1.3 fold
glycogen reduction vs rhGAA alone, triceps (glycogen (GAA substrate); [5]): ~2.2 fold
physical stability of rhGAA (GAA): significant concentration-dependent increases
immunogenicity of Myozyme and Lumizyme [4]: may significantly reduce the immunogenicity
